The record followed here is patent publication US20240287138A1, “CYCLIC PEPTIDES FOR INHIBITING TNF RECEPTOR 1 ACTIVITY” (Merck Sharp & Dohme LLC, priority 2023, published 2024).

Assay [1] concerns the target T1, human soluble TNFR1 (sTNFR1) (Homo sapiens, UniProt P19438).
T1 construct: made in house; host or cells: Sf21 (baculovirus)
T1 sequence (P19438 with tags, fused parts or gaps): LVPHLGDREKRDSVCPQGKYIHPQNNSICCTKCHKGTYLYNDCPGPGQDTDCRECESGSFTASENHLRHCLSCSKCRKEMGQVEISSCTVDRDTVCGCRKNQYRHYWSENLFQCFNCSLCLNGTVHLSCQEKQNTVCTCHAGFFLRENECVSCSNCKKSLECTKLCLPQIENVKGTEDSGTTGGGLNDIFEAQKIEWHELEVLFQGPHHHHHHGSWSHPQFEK
In words: Human sTNFR1-peptide displacement assay (LanthaScreen Eu TR-FRET binding assay). In short, it runs like this:
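Readout is the 665/615 nm TR-FRET ratio (Eu anti-His donor, streptavidin-Alexa647 acceptor), normalized to DMSO and saturating displacer, fit by Morrison-based five-parameter logistic for Kd^app. His-tagged sTNFR1 (1-211) prebound to 100 nM biotinylated peptide SEQ ID NO.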
For orientation: TR-FRET usually uses a lanthanide donor and a delayed reading to cut background.

In assay [2] the target is T2, TNFα-induced NF-κB signal transduction pathway (TNFR1 signaling) in THP-1 cells (Homo sapiens, UniProt P19438).
T2 sequence (P19438 30-455): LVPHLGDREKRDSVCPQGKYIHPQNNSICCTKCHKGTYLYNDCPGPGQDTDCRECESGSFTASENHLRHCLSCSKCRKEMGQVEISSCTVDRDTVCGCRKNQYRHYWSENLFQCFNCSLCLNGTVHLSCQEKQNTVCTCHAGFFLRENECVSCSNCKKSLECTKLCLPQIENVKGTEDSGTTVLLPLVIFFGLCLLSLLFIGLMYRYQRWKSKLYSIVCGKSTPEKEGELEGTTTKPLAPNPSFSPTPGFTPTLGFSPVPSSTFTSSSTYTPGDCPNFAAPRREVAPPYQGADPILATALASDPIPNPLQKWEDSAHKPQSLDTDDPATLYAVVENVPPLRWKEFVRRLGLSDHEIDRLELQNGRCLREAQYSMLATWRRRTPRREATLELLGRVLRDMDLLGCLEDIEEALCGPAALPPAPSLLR
Kind of assay: THP-1 Lucia NF-κB reporter cell assay, inhibition of TNFα-induced NF-κB signaling. It counts as cell-based. Conditions: THP-1 NF-κB Lucia reporter cells, 10 ng/mL TNFα, 16-18 h, secreted luciferase; read-out: THP-1 IC50. Summed up:
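THP-1 Lucia NF-κB cells, 20k/well, no selection antibiotics; peptide pre-inc 1 h 37 °C; + recombinant human TNFα 10 ng/mL final; o.n.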

Like-named read-outs stand apart in the source and are kept apart here. Numbered stars: 1 amine (or outer) side, 2 acyl side, 3 side chain; on linkers, the order of the positions; unused ones are H or OH. Square brackets hold non-standard residues; d marks the D form. Peptide text beside a SMILES is read from it. Ala(2-carboxypyrimidin-5-yl) = N[C@@H](Cc1cnc(C(=O)O)nc1)C(=O)O; Trp(βS-Me,7-OMe) = COc1cccc2c([C@H](C)[C@H](N)C(=O)O)c[nH]c12; X49 = C[N+](C)(C)CC(=O)N[C@H]1C[C@H](C(=O)[*:2])N([*:1])C1; Morpholine(3S-CO,6,6-Me2) = CC1(C)CN[C@H](C(=O)O)CO1; Phe(4-SO3H) = N[C@@H](Cc1ccc(S(=O)(=O)O)cc1)C(=O)O; Trp(7-CN) = N#Cc1cccc2c(C[C@H](N)C(=O)O)c[nH]c12; Trp(7-Cl) = N[C@@H](Cc1c[nH]c2c(Cl)cccc12)C(=O)O; X27 = O=C(O)c1ccc(C[C@H](N[*:1])C(=O)[*:2])cc1F; Phe(4-CONH2) = NC(=O)c1ccc(C[C@H](N)C(=O)O)cc1; Phe(4-COOH) = N[C@@H](Cc1ccc(C(=O)O)cc1)C(=O)O; Trp(7-aza) = N[C@@H](Cc1c[nH]c2ncccc12)C(=O)O; Pip(5R-OH) = O=C(O)[C@@H]1CC[C@@H](O)CN1; X13 = O=C([C@H]1CC[C@@H](N[*:1])C1)[*:2]; X1 = O=C([C@@H]1CC[C@H](N[*:1])C1)[*:2]; Pip(4-aza) = O=C(O)[C@@H]1CNCCN1; 4Pal = N[C@@H](Cc1ccncc1)C(=O)O; NMeE = CN[C@@H](CCC(=O)O)C(=O)O; dHyp = O=C(O)[C@H]1C[C@H](O)CN1; hSer = N[C@@H](CCO)C(=O)O; αMeS = C[C@](N)(CO)C(=O)O; Nle = CCCC[C@H](N)C(=O)O; Sar = CNCC(=O)O

The IC50 is the concentration needed to halve the response being measured. In assay [1], `CCCC[C@@H]1NC(=O)[C@@H]2CC[C@@H](C2)NC(=O)[C@H]([C@@H](C)c2c[nH]c3c(OC)cccc23)NC(=O)CN(C)C(=O)[C@H](Cc2ccc(O)cc2)NC(=O)[C@H](Cc2ccc(S(=O)(=O)O)cc2)NC(=O)[C@](C)(CO)NC(=O)[C@H](Cc2c[nH]c3c(Cl)cccc23)NC(=O)[C@H](Cc2ccncc2)NC(=O)[C@H](CC(N)=O)NC(=O)[C@H](CCC(=O)O)N(C)C(=O)[C@H](Cc2c[nH]c3ccccc23)NC(=O)[C@@H]2CNCCN2C(=O)[C@H](Cc2ccncc2)NC1=O` [SEQ ID NO. 199] (cyclo([4Pal][Trp(7-Cl)][αMeS][Phe(4-SO3H)]Y[Sar][Trp(βS-Me,7-OMe)][X1][Nle][4Pal][Pip(4-aza)]W[NMeE]N)) displayed a Kd of 0.32 nM. Besides, in assay [2], the IC50 stood at 1 nM.
Take `CCCC[C@@H]1NC(=O)[C@H]2CC[C@H](C2)NC(=O)[C@H]([C@@H](C)c2c[nH]c3c(OC)cccc23)NC(=O)CN(C)C(=O)[C@H](Cc2ccc(O)cc2)NC(=O)[C@H](Cc2ccc(C(N)=O)cc2)NC(=O)[C@](C)(CO)NC(=O)[C@H](Cc2c[nH]c3c(Cl)cccc23)NC(=O)[C@H](Cc2ccncc2)NC(=O)[C@H](CC(N)=O)NC(=O)[C@H](CCC(=O)O)N(C)C(=O)[C@H](Cc2c[nH]c3ccccc23)NC(=O)[C@@H]2COC(C)(C)CN2C(=O)[C@H](Cc2ccncc2)NC1=O` [SEQ ID NO. 214] (cyclo([4Pal][Trp(7-Cl)][αMeS][Phe(4-CONH2)]Y[Sar][Trp(βS-Me,7-OMe)][X13][Nle][4Pal][Morpholine(3S-CO,6,6-Me2)]W[NMeE]N)): the Kd in assay [1] (displacement of biotinylated peptide SEQ ID NO. 1 from sTNFR1, 20 point titration, 5-parameter fit based on Morrison equation (tight binding), read-out: TR-FRET Kd^app) amounted to 0.61 nM. Besides, the IC50 in assay [1] (displacement of biotinylated peptide SEQ ID NO. 1 from sTNFR1, weaker binders, 10 pts titration, 4-parameter logistic model, read-out: TR-FRET, IC50) stood at 0.95 nM; in assay [2], 3.7 nM.
Consider `CCCC[C@@H]1NC(=O)[C@@H]2CC[C@@H](C2)NC(=O)[C@H]([C@@H](C)c2c[nH]c3c(OC)cccc23)NC(=O)CN(C)C(=O)[C@H](Cc2ccc(C(=O)O)cc2)NC(=O)[C@H](Cc2ccc(C(N)=O)cc2)NC(=O)[C@](C)(CO)NC(=O)[C@H](Cc2c[nH]c3c(C#N)cccc23)NC(=O)[C@H](Cc2ccc(C(=O)O)c(F)c2)NC(=O)[C@H](CC(N)=O)NC(=O)[C@H]2C[C@H](NC(=O)C[N+](C)(C)C)CN2C(=O)[C@H](Cc2c[nH]c3ncccc23)NC(=O)[C@@H]2CC[C@@H](O)CN2C(=O)[C@H](Cc2ccncc2)NC1=O` [SEQ ID NO. 116] (cyclo([4Pal][Pip(5R-OH)][Trp(7-aza)][X49]N[X27][Trp(7-CN)][αMeS][Phe(4-CONH2)][Phe(4-COOH)][Sar][Trp(βS-Me,7-OMe)][X1][Nle])), for which the Kd in assay [1] worked out at 0.08 nM. Moreover, the IC50 in assay [2] turned out to be 0.4 nM.
In turn, `CCCC[C@@H]1NC(=O)[C@@H]2CC[C@@H](C2)NC(=O)[C@H]([C@@H](C)c2c[nH]c3c(OC)cccc23)NC(=O)CN(C)C(=O)[C@H](Cc2cnc(C(=O)O)nc2)NC(=O)[C@H](Cc2ccc(C(N)=O)cc2)NC(=O)[C@](C)(CO)NC(=O)[C@H](Cc2c[nH]c3c(Cl)cccc23)NC(=O)[C@H](Cc2ccc(C(=O)O)cc2)NC(=O)[C@H](CC(N)=O)NC(=O)[C@H]2C[C@H](O)CN2C(=O)[C@H](Cc2c[nH]c3ccccc23)NC(=O)[C@@H]2CC[C@@H](O)CN2C(=O)[C@H](Cc2ccncc2)NC1=O` [SEQ ID NO. 191] (cyclo([4Pal][Pip(5R-OH)]W[dHyp]N[Phe(4-COOH)][Trp(7-Cl)][αMeS][Phe(4-CONH2)][Ala(2-carboxypyrimidin-5-yl)][Sar][Trp(βS-Me,7-OMe)][X1][Nle])) showed a Kd in assay [1] of 0.18 nM. Besides, the IC50 in assay [2] is 1.6 nM.
Taken in the same sequence, the figures for `CCCC[C@@H]1NC(=O)[C@@H]2CC[C@@H](C2)NC(=O)[C@H]([C@@H](C)c2c[nH]c3c(OC)cccc23)NC(=O)CN(C)C(=O)[C@H](Cc2ccc(O)cc2)NC(=O)[C@H](Cc2ccc(C(=O)O)cc2)NC(=O)[C@](C)(CO)NC(=O)[C@H](Cc2c[nH]c3c(Cl)cccc23)NC(=O)[C@H](Cc2ccncc2)NC(=O)[C@H](CCOC)NC(=O)[C@H](CCC(=O)O)N(C)C(=O)[C@H](Cc2c[nH]c3ccccc23)NC(=O)[C@@H]2CNCCN2C(=O)[C@H](Cc2ccncc2)NC1=O` [SEQ ID NO. 181] (cyclo([4Pal][Trp(7-Cl)][αMeS][Phe(4-COOH)]Y[Sar][Trp(βS-Me,7-OMe)][X1][Nle][4Pal][Pip(4-aza)]W[NMeE][hSer](Me))) were 0.34 nM and 1.2 nM.
